Assay results: patent publication US6087358A (priority 1997, dated 2000)
≈ marks a conversion by molar mass, not a printed value.

Tested on: Mycobacterium tuberculosis (multidrugresistant strain)
Assay: microbe, parasite or virus in culture
Assay type: cell-based
Conditions: read-out: MIC, column C, 3(S) compounds

**Q.** O=[N+]([O-])c1cn2c(n1)OC[C@@H](OCc1ccc(OCc3ccccc3)cc1)C2 [PA-647] was tested. Which MIC did it give?
**A.** ≤ 0.015 µg/mL

**Q.** How did the MIC turn out when CC(C)(C)c1ccc(CO[C@@H]2COc3nc([N+](=O)[O-])cn3C2)cc1 [PA-653] was run?
**A.** ≤ 0.015 µg/mL

**Q.** With CCCCc1ccc(CO[C@@H]2COc3nc([N+](=O)[O-])cn3C2)cc1 [PA-822] as the compound, how does the MIC read?
**A.** ≤ 0.015 µg/mL

**Q.** How did the MIC turn out when O=[N+]([O-])c1cn2c(n1)OC[C@@H](OCc1ccc(OC(F)(F)F)cc1)C2 [PA-824, 3S 4-(Trifluromethoxy)benzyloxy-6-nitro-2H-3,4-dihydro-[2-1b]imidazopyran] was run?
**A.** 0.13 µg/mL (≈ 0.362 µM)
